Experimental data: patent US10370354B2, “Metalloenzyme inhibitor compounds” (NQP 1598, LTD., priority 2011, dated 2019)
Values after ≈ are worked out from the molar mass of the structure shown.

Columns and labels:
A. fumigatus [1] = experiment: A. fumigatus MIC, CLSI M38-A2; conditions: Aspergillus fumigatus, read-out: Aspergillus MIC
C. albicans = experiment: Minimum Inhibitory Concentration (MIC), C. albicans, CLSI M27-A2; assay type: cell-based; conditions: Candida albicans MIC50; about 50% growth reduction; approximately 48 h at 35±1° C.
Method: Compounds were assessed for their ability to inhibit the growth of common strains of fungus, C. albicans using a standardized procedure (CLSI M27-A2).
Stock solutions of the test compounds and standards were prepared in DMSO at 1600 μg/mL (C. albicans). Eleven, serial, one-half dilutions of compounds were prepared in 96-well plates in RPMI+MOPS. The assay concentration ranges were 1-0.001 μg/mL (C. albicans). Cell suspensions of C. albicans were prepared and added to each well at concentrations of approximately 3.7×10^3 colony-forming-units per milliliter (cfu/mL). All testing was in duplicate. The inoculated plates were incubated for approximately 48 h at 35±1° C. At the completion of incubation the wells of each plate were evaluated visually for the presence of fungal growth.
For voriconazole the M1C was the concentration which reduced C. albicans growth by 50% (per CLST, M27-A2). For QC purposes C. krusei isolate ATCC 6258 (4.0×10^3 cfu/mL) was included in the VOR assay.

Septoria tritici = experiment: standard Septoria tritici MIC assay (ATCC 26517, CLSI protocol); assay type: cell-based; conditions: Zymoseptoria tritici, ATCC26517, range stated for the three compounds together
A. fumigatus [2] = experiment: standard 4-day mouse model of A. fumigatus, kidney fungal burden; assay type: in vivo; conditions: oral administration at 20 mg/kg each of 4 days
Method: For example, oral administration of Compound (−)-9 at 20 mg/kg each of 4 days reduced mouse kidney fungal burden 84% compared to control.

Puccinia = experiment: protection from fungal growth in planta, Puccinia; assay type: in vivo; conditions: applied at 50 ppm; Puccinia pathogen
Septoria = experiment: protection from fungal growth in planta, Septoria; assay type: in vivo; conditions: applied at 50 ppm; Septoria pathogen

MIC (A. fumigatus [1]) [µg/mL]	MIC (C. albicans) [µg/mL]	MIC (Septoria tritici) [µg/mL]	SMILES	also measured
0.25 (≈ 0.716 µM)	0.016 (≈ 0.0458 µM)	–	C[C@@H](c1ncncc1F)[C@](O)(Cn1cncn1)c1ccc(F)cc1F [Voriconazole, reference compound]	–
4 (≈ 6.54 µM)	0.062 (≈ 0.101 µM)	–	OC(Cn1cnnn1)(c1ccc(F)cc1F)C(F)(F)c1ccc(C#Cc2ccc(OCc3ccc(Cl)cc3F)cc2)cn1 (racemic) [Example 108, 1-(5-((4-(4-chloro-2-fluorobenzyloxy)phenyl)ethynyl)pyridin-2-yl)-2-(2,4-difluorophenyl)-1,1-difluoro-3-(1H-tetrazol-1-yl)propan-2-ol]	–
–	–	0.25 to 1 (≈ 0.512 to 2.05 µM)	OC(Cn1cnnn1)(c1ccc(F)cc1F)C(F)(F)c1ccc(C#Cc2cccc(Cl)c2)cn1 (racemic) [Example 21, 1-(5-((3-chlorophenyl)ethynyl)pyridin-2-yl)-2-(2,4-difluorophenyl)-1,1-difluoro-3-(1H-tetrazol-1-yl)propan-2-ol]	–
2 (≈ 3.11 µM)	0.25 (≈ 0.388 µM)	–	OC(Cn1cnnn1)(c1ccc(F)cc1F)C(F)(F)c1ccc(C#Cc2ccc(OCc3ccc(OC(F)(F)F)cc3)cc2)cn1 (racemic) [Example 101, 2-(2,4-difluorophenyl)-1,1-difluoro-3-(1H-tetrazol-1-yl)-1-(5-((4-(4-(trifluoromethoxy)benzyloxy)phenyl)ethynyl)pyridin-2-yl)propan-2-ol]	–

The remaining lines, values behind:

SMILES	MIC (A. fumigatus [1]) [µg/mL]	MIC (C. albicans) [µg/mL]	MIC (Septoria tritici) [µg/mL]	also measured
OC(Cn1cnnn1)(c1ccc(F)cc1F)C(F)(F)c1ccc(C#Cc2ccc(C(F)(F)F)cc2)cn1 (racemic) [Example 5, 2-(2,4-Difluorophenyl)-1,1-difluoro-3-(1H-tetrazol-1-yl)-1-(5-((4-(trifluoromethyl)phenyl)ethynyl)pyridin-2-yl)propan-2-ol]	8 (≈ 15.3 µM)	0.016 (≈ 0.0307 µM)	–	–
OC(Cn1cnnn1)(c1ccc(F)cc1F)C(F)(F)c1ccc(C#Cc2ccc(F)cc2)cn1 (racemic) [Example 3, 2-(2,4-Difluorophenyl)-1,1-difluoro-1-(5-((4-fluorophenyl)ethynyl)pyridin-2-yl)-3-(1H-tetrazol-1-yl)propan-2-ol]	–	–	0.25 to 1 (≈ 0.53 to 2.12 µM)	–
OC(c1ccc(C#Cc2ccc(C(F)(F)C(O)(Cn3cnnn3)c3ccc(F)cc3F)nc2)cc1)C(F)(F)F (stereo not drawn) [Compound (−)-9, 2-(2,4-difluorophenyl)-1,1-difluoro-3-(1H-tetrazol-1-yl)-1-(5-((4-(2,2,2-trifluoro-1-hydroxyethyl)phenyl)ethynyl)pyridin-2-yl)propan-2-ol]	–	–	–	reduced mouse kidney fungal burden compared to control (A. fumigatus [2]): 84%
OC(Cn1cnnn1)(c1ccc(F)cc1F)C(F)(F)c1ccc(C#Cc2ccc(Cl)cc2)cn1 (racemic) [Example 2, 1-(5-((4-Chlorophenyl)ethynyl)pyridin-2-yl)-2-(2,4-difluorophenyl)-1,1-difluoro-3-(1H-tetrazol-1-yl)propan-2-ol]	8 (≈ 16.4 µM)	0.004 (≈ 0.0082 µM)	0.25 to 1 (≈ 0.512 to 2.05 µM)	protection from fungal growth in planta (Puccinia): provide protection from fungal growth; protection from fungal growth in planta (Septoria): provide protection from fungal growth
OC(c1ccc(C#Cc2ccc(C(F)(F)C(O)(Cn3cnnn3)c3ccc(F)cc3F)nc2)cc1)C(F)(F)F (racemic) [Example 9, 2-(2,4-difluorophenyl)-1,1-difluoro-3-(1H-tetrazol-1-yl)-1-(5-((4-(2,2,2-trifluoro-1-hydroxyethyl)phenyl)ethynyl)pyridin-2-yl)propan-2-ol]	0.5 (≈ 0.907 µM)	≤ 0.001	–	–
